This note sets out measurements from patent US20240247035A1, “STAPLED ANTIMICROBIAL PEPTIDES (STAMPS) AND USES THEREOF” (Lytica Therapeutics, Inc., priority 2021, published 2024).

Converted amounts (≈) assume the structure as drawn. Bridge positions count the residues as written; N and C are the ends. Square brackets hold non-standard residues; d marks the D form. Peptide text beside a SMILES is read from it. Phe(4-tBu) = CC(C)(C)c1ccc(C[C@H](N)C(=O)O)cc1; S5 = C=CCCC[C@](C)(N)C(=O)O; Dab = NCC[C@H](N)C(=O)O; Dap = NC[C@H](N)C(=O)O

The term IC50 denotes the concentration that inhibits the measured activity by half.

Data set [1] is described as follows: 90 minute cytotoxicity assay (LDH release), renal toxicity. It counts as cell-based. The note with it: human. The procedure:
(§1) Cell culture: RPTEC were maintained in MEM media supplemented with growth factors. HEPG2 cell line was maintained in Eagle's Minimum Essential Medium (EMEM) supplemented with fetal bovine serum to a final concentration of 10%.
90 minute cytotoxicity assay: Cells were plated in a 96-well format, and after overnight incubation, media was replaced with fresh media. Serial dilutions of StAMPs from a 5 mg/mL water stock, or vehicle, were added to the cells in a final volume of 100 μl. After incubating at 37° C. for 90 min, 50 μl of cell culture media was transferred to a clear 96-well plate, incubated with 50 μl of lactate dehydrogenase (LDH) assay reagent for 10 min, and absorbance measured at 490 nm on a microplate reader.
(§2) Renal toxicity was measured after 90 minutes of incubation, while liver toxicity was measured after 48 hours of incubation with StAMPs. N/A=not tested.
On the technique in general: Release of lactate dehydrogenase indicates damage to the cell membrane.

The nature of data set [2]: 48 hours cytotoxicity assay (CellTiter-Glo), liver toxicity. It counts as cell-based. The note with it: human. As for the experimental part:
as §1
48 hours cytotoxicity assay: Cells were plated in a 96-well format, and after 4 hour incubation to allow attachment, serial dilutions of StAMPs from a 5 mg/mL water stock, or vehicle, were then added to the cells in a final volume of 100 μl. After incubating at 37° C. for 48 hours, 100 μl of CellTiter-Glo® reagent was added to the cells, and the plates were incubated 10 minutes at room temperature. Luminescence was then measured on a microplate reader.
as §2

In data set [1], `CC[C@H](C)[C@H](NC(=O)[C@H](CCCCN)NC(=O)[C@H](CCCCN)NC(=O)CNC(=O)[C@H](CCCCN)NC(=O)[C@]1(C)CCCC=CCCC[C@](C)(NC(=O)CN)C(=O)N[C@@H](CCCCN)C(=O)N[C@@H](CO)C(=O)N[C@@H](CCCCN)C(=O)N1)C(=O)N[C@@H](CCCCN)C(=O)N[C@@H](CC(N)=O)C(=O)N[C@@H](CC(C)C)C(=O)N[C@@]1(C)CCCC=CCCC[C@@](C)(C(=O)N[C@@H](CCCCN)C(=O)N[C@@H](CC(N)=O)C(=O)N[C@@H](CCC(=O)O)C(N)=O)NC(=O)[C@H](Cc2ccccc2)NC(=O)[C@H](CO)NC(=O)[C@H]([C@@H](C)CC)NC1=O` [compound 23] (H-G[S5]KSK[S5]KGKKIKNL[S5]ISF[S5]KNE-NH2; staple 2-6, 15-19) showed an IC50 at 90 min of 62 µg/mL (≈ 24.3 µM). Further, the half-maximal inhibitory concentration (IC50) at 48 hours in data set [2] worked out at 53 µg/mL (≈ 20.8 µM).

For `CC[C@H](C)[C@H](NC(=O)[C@H](CCCCN)NC(=O)[C@H](CCCCN)NC(=O)CNC(=O)[C@H](CCCCN)NC(=O)[C@]1(C)CCCC=CCCC[C@](C)(NC(=O)CN)C(=O)N[C@@H](Cc2ccccc2)C(=O)N[C@@H](CO)C(=O)N[C@@H](CCCCN)C(=O)N1)C(=O)N[C@@H](CCCCN)C(=O)N[C@@H](CC(N)=O)C(=O)N[C@@H](CC(C)C)C(=O)N[C@@H](CC(C)C)C(=O)N[C@@]1(C)CCCC=CCCC[C@@](C)(C(=O)NCC(N)=O)NC(=O)[C@H](CCCCN)NC(=O)CNC(=O)[C@H](CO)NC1=O` [compound 37] (H-G[S5]FSK[S5]KGKKIKNLL[S5]SGK[S5]G-NH2; staple 2-6, 16-20), the IC50 at 90 min in data set [1] was > 200 µg/mL. Moreover, the IC50 at 48 hours in data set [2] was > 200 µg/mL.

With `CC[C@H](C)[C@H](NC(=O)[C@H](CN)NC(=O)[C@H](CN)NC(=O)CNC(=O)[C@H](CN)NC(=O)[C@]1(C)CCCC=CCCC[C@](C)(NC(=O)CN)C(=O)N[C@@H](Cc2ccccc2)C(=O)N[C@@H](CO)C(=O)N[C@@H](CN)C(=O)N1)C(=O)N[C@@H](CN)C(=O)N[C@@H](CC(N)=O)C(=O)N[C@@H](CC(C)C)C(=O)N[C@@]1(C)CCCC=CCCC[C@@](C)(C(=O)N[C@@H](CN)C(=O)NCC(N)=O)NC(=O)CNC(=O)[C@H](CO)NC(=O)[C@H]([C@@H](C)CC)NC1=O` [compound 16] (H-G[S5]FS[Dap][S5][Dap]G[Dap][Dap]I[Dap]NL[S5]ISG[S5][Dap]G-NH2; staple 2-6, 15-19), the IC50 at 90 min in data set [1] is > 200 µg/mL. Moreover, the IC50 at 48 hours in data set [2] is ~200 µg/mL (≈ 98.2 µM).

Regarding `CC[C@H](C)[C@H](NC(=O)[C@H](CCCCN)NC(=O)[C@H](CCCCN)NC(=O)CNC(=O)[C@H](CCCCN)NC(=O)[C@]1(C)CCCC=CCCC[C@](C)(NC(=O)CN)C(=O)N[C@@H](CCCCN)C(=O)N[C@@H](CO)C(=O)N[C@@H](CCCCN)C(=O)N1)C(=O)N[C@@H](CCCCN)C(=O)N[C@@H](CC(N)=O)C(=O)N[C@@H](CC(C)C)C(=O)N[C@@]1(C)CCCC=CCCC[C@@](C)(C(=O)N[C@@H](CCCCN)C(=O)N[C@@H](CC(N)=O)C(N)=O)NC(=O)CNC(=O)[C@H](CO)NC(=O)[C@H]([C@@H](C)CC)NC1=O` [compound 17] (H-G[S5]KSK[S5]KGKKIKNL[S5]ISG[S5]KN-NH2; staple 2-6, 15-19), in data set [1], the IC50 at 90 min worked out at 325 µg/mL (≈ 140 µM). Moreover, in data set [2], the IC50 at 48 hours was found to be 172 µg/mL (≈ 73.9 µM).

Turning to `CC[C@H](C)[C@H](NC(=O)[C@H](CCN)NC(=O)[C@H](CCN)NC(=O)CNC(=O)[C@H](CCN)NC(=O)[C@]1(C)CCCC=CCCC[C@](C)(NC(=O)CN)C(=O)N[C@@H](Cc2ccccc2)C(=O)N[C@@H](CO)C(=O)N[C@@H](CCN)C(=O)N1)C(=O)N[C@@H](CCN)C(=O)N[C@@H](CC(N)=O)C(=O)N[C@@H](CC(C)C)C(=O)N[C@@]1(C)CCCC=CCCC[C@@](C)(C(=O)N[C@@H](CCN)C(=O)NCC(N)=O)NC(=O)CNC(=O)[C@H](CO)NC(=O)[C@H]([C@@H](C)CC)NC1=O` [compound 14] (H-G[S5]FS[Dab][S5][Dab]G[Dab][Dab]I[Dab]NL[S5]ISG[S5][Dab]G-NH2; staple 2-6, 15-19), the IC50 at 90 min in data set [1] was determined as 40 µg/mL (≈ 18.9 µM). Moreover, the IC50 at 48 hours in data set [2] is ~150 µg/mL (≈ 70.7 µM).

In data set [1], `CC[C@H](C)[C@H](NC(=O)[C@H](CCCCN)NC(=O)[C@H](CCCCN)NC(=O)CNC(=O)[C@H](CCCCN)NC(=O)[C@]1(C)CCCC=CCCC[C@](C)(NC(=O)CN)C(=O)N[C@@H](Cc2ccccc2)C(=O)N[C@@H](CO)C(=O)N[C@@H](CCCCN)C(=O)N1)C(=O)N[C@@H](CCCCN)C(=O)N[C@@H](CCCCN)C(=O)N[C@@H](CC(C)C)C(=O)N[C@@]1(C)CCCC=CCCC[C@@](C)(C(=O)N[C@@H](CCCCN)C(=O)NCC(N)=O)NC(=O)CNC(=O)[C@H](CO)NC(=O)[C@H]([C@@H](C)CC)NC1=O` [compound 29] (H-G[S5]FSK[S5]KGKKIKKL[S5]ISG[S5]KG-NH2; staple 2-6, 15-19) yielded an IC50 at 90 min of 27 µg/mL (≈ 11.7 µM). In addition, the IC50 at 48 hours in data set [2] came to 22 µg/mL (≈ 9.55 µM).

In data set [1], `CC[C@H](C)[C@@H]1NC(=O)[C@@](C)(NC(=O)[C@H](CC(C)C)NC(=O)[C@H](CC(N)=O)NC(=O)[C@H](CCCCN)NC(=O)[C@H](CC(C)C)NC(=O)[C@H](CCCCN)NC(=O)[C@H](CCCCN)NC(=O)CNC(=O)[C@H](C)NC(=O)[C@]2(C)CCCC=CCCC[C@](C)(NC(=O)CN)C(=O)N[C@@H](CCCCN)C(=O)N[C@@H](CO)C(=O)N[C@@H](CCCCN)C(=O)N2)CCCC=CCCC[C@@](C)(C(=O)N[C@@H](CCCCN)C(=O)N[C@@H](CC(N)=O)C(N)=O)NC(=O)CNC(=O)[C@H](CO)NC1=O` [compound 9] (H-G[S5]KSK[S5]AGKKLKNL[S5]ISG[S5]KN-NH2; staple 2-6, 15-19) registered an IC50 at 90 min of 184 µg/mL (≈ 81 µM). The midpoint of inhibition in data set [2], the IC50 at 48 hours, lay at 107 µg/mL (≈ 47.1 µM).

`CC[C@H](C)[C@H](NC(=O)[C@H](CCCCN)NC(=O)[C@H](CCCCN)NC(=O)CNC(=O)[C@H](CCCCN)NC(=O)[C@]1(C)CCCC=CCCC[C@](C)(NC(=O)CN)C(=O)N[C@@H](Cc2ccccc2)C(=O)N[C@@H](CO)C(=O)N[C@@H](CCCCN)C(=O)N1)C(=O)N[C@@H](CCCCN)C(=O)N[C@@H](CC(N)=O)C(=O)N[C@@H](CC(C)C)C(=O)N[C@@]1(C)CCCC=CCCC[C@@](C)(C(=O)N[C@@H](CCCCN)C(=O)N[C@@H](CCCCN)C(N)=O)NC(=O)CNC(=O)[C@H](CO)NC(=O)[C@H]([C@@H](C)CC)NC1=O` [compound 4] (H-G[S5]FSK[S5]KGKKIKNL[S5]ISG[S5]KK-NH2; staple 2-6, 15-19): the IC50 at 90 min in data set [1] worked out at 34 µg/mL (≈ 14.4 µM). This compound also came in with an IC50 at 48 hours in data set [2] of 24 µg/mL (≈ 10.2 µM).

`CC[C@H](C)[C@@H]1NC(=O)[C@@](C)(NC(=O)[C@H](CC(C)C)NC(=O)[C@H](CC(N)=O)NC(=O)[C@H](CCCCN)NC(=O)[C@H](Cc2ccc(C(C)(C)C)cc2)NC(=O)[C@H](CCCCN)NC(=O)[C@H](CCCCN)NC(=O)CNC(=O)[C@H](CCCCN)NC(=O)[C@]2(C)CCCC=CCCC[C@](C)(NC(=O)CN)C(=O)N[C@@H](CCCCN)C(=O)N[C@@H](CO)C(=O)N[C@@H](CCCCN)C(=O)N2)CCCC=CCCC[C@@](C)(C(=O)N[C@@H](CCCCN)C(=O)N[C@@H](CC(N)=O)C(N)=O)NC(=O)CNC(=O)[C@H](CO)NC1=O` [compound 18] (H-G[S5]KSK[S5]KGKK[Phe(4-tBu)]KNL[S5]ISG[S5]KN-NH2; staple 2-6, 15-19) gave an IC50 at 48 hours in data set [2] of 21 µg/mL (≈ 8.68 µM).

For the compound `CC[C@H](C)[C@H](NC(=O)CN)C(=O)N[C@@H](Cc1ccccc1)C(=O)N[C@@H](CO)C(=O)N[C@@H](CCCCN)C(=O)N[C@@H](CC(C)C)C(=O)N[C@@]1(C)CCCC=CCCC[C@@](C)(C(=O)N[C@@H](CCCCN)C(=O)N[C@@H](CC(N)=O)C(=O)N[C@@H](CC(C)C)C(=O)N[C@@H](CCCCN)C(=O)N[C@H](C(=O)N[C@@H](CO)C(=O)NCC(=O)N[C@@H](CC(C)C)C(=O)N[C@@H](CCCCN)C(=O)NCC(N)=O)[C@@H](C)CC)NC(=O)[C@H](CCCCN)NC(=O)[C@H](CCCCN)NC(=O)CNC1=O` [compound 41] (H-GIFSKL[S5]GKK[S5]KNLKISGLKG-NH2; staple 7-11), 147 µg/mL (≈ 64.9 µM) corresponded to half-maximal inhibition in data set [1] (IC50 at 90 min). Also, in data set [2], inhibition was half-maximal at 172 µg/mL (≈ 75.9 µM) (IC50 at 48 hours).

As to `CC[C@H](C)[C@@H]1NC(=O)[C@@](C)(NC(=O)[C@H](CC(C)C)NC(=O)[C@H](CC(N)=O)NC(=O)[C@H](CCCCN)NC(=O)[C@@H](NC(=O)[C@H](CCCCN)NC(=O)[C@H](CCCCN)NC(=O)CNC(=O)[C@H](CCCCN)NC(=O)[C@]2(C)CCCC=CCCC[C@](C)(NC(=O)CN)C(=O)N[C@@H](CCCCN)C(=O)N[C@@H](CO)C(=O)N[C@@H](CCCCN)C(=O)N2)C(C)C)CCCC=CCCC[C@@](C)(C(=O)N[C@@H](CCCCN)C(=O)NCC(N)=O)NC(=O)CNC(=O)[C@H](CO)NC1=O` [compound 8] (H-G[S5]KSK[S5]KGKKVKNL[S5]ISG[S5]KG-NH2; staple 2-6, 15-19), the IC50 at 90 min in data set [1] was > 200 µg/mL. Also, the IC50 at 48 hours in data set [2] is > 200 µg/mL.

In data set [1], `CC[C@H](C)[C@H](NC(=O)[C@H](CCCCN)NC(=O)[C@H](CCCCN)NC(=O)CNC(=O)[C@H](CCCCN)NC(=O)[C@]1(C)CCCC=CCCC[C@](C)(NC(=O)CN)C(=O)N[C@@H](Cc2ccccc2)C(=O)N[C@@H](CO)C(=O)N[C@@H](CCCCN)C(=O)N1)C(=O)N[C@@H](CCCCN)C(=O)N[C@@H](CC(N)=O)C(=O)N[C@@H](CC(C)C)C(=O)N[C@@]1(C)CCCC=CCCC[C@@](C)(C(=O)N[C@@H](CCCCN)C(=O)NCC(N)=O)NC(=O)CNC(=O)[C@H](CCCCN)NC(=O)[C@H]([C@@H](C)CC)NC1=O` [compound 32] (H-G[S5]FSK[S5]KGKKIKNL[S5]IKG[S5]KG-NH2; staple 2-6, 15-19) had an IC50 at 90 min of 33 µg/mL (≈ 14.2 µM). For the same compound, in data set [2], the IC50 at 48 hours amounted to 25 µg/mL (≈ 10.7 µM).
